This note sets out measurements from ChEMBL document CHEMBL4616674, “Fragment-based Differential Targeting of PPI Stabilizer Interfaces” (J Med Chem, 2020).

The target in experiment [1] is T1, 14-3-3 protein sigma (Homo sapiens) (UniProt P31947).
T1 sequence (whole entry): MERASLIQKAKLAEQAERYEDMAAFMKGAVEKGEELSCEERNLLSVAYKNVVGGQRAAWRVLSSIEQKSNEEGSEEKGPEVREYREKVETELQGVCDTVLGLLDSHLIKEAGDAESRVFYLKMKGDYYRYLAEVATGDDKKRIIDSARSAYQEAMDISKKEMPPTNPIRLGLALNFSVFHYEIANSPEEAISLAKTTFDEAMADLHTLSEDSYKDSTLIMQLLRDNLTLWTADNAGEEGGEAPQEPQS
Kind of experiment: Binding affinity to 6x-His tagged 14-3-3-sigma (unknown origin) expressed in Escherichia coli BL21 (DE3) at 500 uM in presence of p53pT387 peptide by WaterLOGSY NMR spectroscopy.

In experiment [2] the target is T1, 14-3-3 protein sigma (Homo sapiens). The experiment in a line: Binding affinity to 15N2H labeled and 6x-His tagged 14-3-3-sigma (unknown origin) expressed in Escherichia coli assessed as induction of broadening (intensity decrease) and chemical shift value perturbation at 2000 uM in absence of p53pT387 peptide by 1H-15N TROSY-HSQC NMR spectroscopy.
The target is the same in experiment [3]. The experiment in a line: Binding affinity to 15N2H labeled and 6x-His tagged 14-3-3-sigma (unknown origin) expressed in Escherichia coli assessed as induction of broadening (intensity decrease) and chemical shift value perturbation at 2000 uM in presence of p53pT387 peptide by 1H-15N TROSY-HSQC NMR spectroscopy.
Experiment [4] shares this target. Kind of experiment: Binding affinity to 6x-His tagged 14-3-3-sigma (unknown origin) expressed in Escherichia coli at 1 mM by fluorescence polarization assay. For orientation: In fluorescence polarisation assays a small probe gives low polarisation when free and higher when bound to something large.
The target is the same in experiment [5]. The experiment in a line: Binding affinity to 6x-His tagged 14-3-3-sigma (unknown origin) expressed in Escherichia coli at 1 mM by SPR assay. For orientation: In SPR one partner is held on a chip, and binding of the other changes the refractive index at the surface.
Experiment [6] has the same target. The experiment in a line: Binding affinity to 6x-His tagged 14-3-3-sigma (unknown origin) expressed in Escherichia coli BL21 (DE3) in presence of acetylated p53pT387 peptide by crystallography.

Activity calls are given as the source filed them. No cut-off for these calls is given here.

As to `CC(C)Oc1ccc(C(=O)NCCN)c2cc(C(=N)N)sc12`, the result in experiment [1], in experiment [2], in experiment [3], in experiment [4] and in experiment [5] was Active.

Consider `CC(CN)Nc1cc(CS)cc2sc(C(=N)N)cc12` (stereo not drawn), for which the outcome in experiment [6] was Active.

For `N=C(N)c1cc(-c2ccccc2)c(-c2c[nH]cn2)s1`, the outcome in experiment [6] was Active.

As to `CC(CN)Nc1cccc2cc(C(=N)N)sc12` (stereo not drawn), the result in experiment [6] was Active.
